Results from patent US6034085A, “Salt form of nefazodone for use in extended release formulations” (Bristol-Myers Squibb Co., priority 1998, dated 2000).
Entries after “also recorded” stand apart in the source; their conditions may differ. Structures can show the parent of a compound that is named as a salt. Where two headings read alike, the source gives them in different places.

Key:
[1] = Intrinsic dissolution of various nefazodone salts in water at 37° C.; type: physicochemical; details: for Intrinsic Dissolution Rate: n = 2; for Final pH: pH of the aqueous medium after dissolution had occurred
Protocol: Table 1 sets out intrinsic dissolution rates for various salts of nefazodone in water at 37° C. The final pH value is the pH of the aqueous medium after dissolution had occurred. […] Note, however, that the tosylate salt's dissolution rate is also slow even though the media is acidic in nature.
The intrinsic dissolution experiments were performed with 75 mL water as the dissolution medium. The details of these dissolution experiments are summarized below:
Container: Double-walled beaker, 100 mL capacity, round bottom.
Volume of sample withdrawn per interval: 1 mL.
Temperature of the solution in the beaker was maintained by means of a circulating waterbath. The medium was stirred with a USP II paddle using 100 rpm stirring rate (paddle depth=1 inch below the surface of the medium). Samples were withdrawn through a 0.45 μm syringe filter and were analyzed without any further dilution or treatment by HPLC (Method 1).

[2] = Drug release from tablets in simulated gastric fluid pH 1.2 (FIG. 2); type: physicochemical; details: pH 1.2, 37° C.
Protocol: (§1) The curves are plotted as percent nefazodone released over time in hours.
(§2) Remaining dissolution experiments were made with the nefazodone salts formulated into tablets as described more fully infra. Essentially, the tablets were comprised of a nefazodone salt, hydroxypropylcellulose, lactose and magnesium stearate.
(§3) Release Profiles from the Tablet Formulation
(§4) The preparation and characterization of tablets of salts of nefazodone was performed as described below:
(§5) The nefazodone salt, hydroxypropyl cellulose EF and lactose were mixed for 10-15 minutes. Magnesium stearate was added to this mixture, mixing it for five more minutes. Tablets were compressed using a Manesty machine (Model-Manesty B3B). The tablet hardness was approximately 7 SCU.
(§6) Dissolution studies were performed with a USP II apparatus in simulated gastric fluid (USP, pH 1.2), simulated intestinal fluid (USP, pH 7.5) and 0.5 M THAM (pH 7.7). The details of conditions for the dissolution experiments are as follows:
(§7) […]: 900 mL.
(§8) Sample volume withdrawn at each interval: 0.7 mL.
(§9) Samples were filtered during withdrawal and chromatographed without further dilution or treatment. Samples were analyzed by Waters HPLC system. The HPLC conditions are listed in Method 2 below.

[3] = cited from earlier work
[4] = extended release formulations, cited from earlier work
[5] = cited from earlier work; remark: listed apart in the source
[6] = Dissolution of powdered nefazodone salts in 0.125M THAM buffer (FIG. 1); type: physicochemical; details: powder, pH 7.5, 37° C.
Protocol: The curves are plotted as cumulative amounts of nefazodone versus time in minutes.
To assess solubility in non-acidic media, dissolution rates were determined for selected nefazodone salts in THAM buffer (0.125M, pH 7.5) made by dissolving tri(hydroxymethyl)aminomethane in water and adjusting the pH with conc. hydrochloride acid.
Intrinisic Dissolution Experiments in THAM
THAM buffer was prepared by dissolving tri(hydroxymethyl)aminomethane in water and adjusting the pH with concentrated hydrochloric acid. Dissolution of salts of nefazodone in powder form was studied in this medium.
The experiments were conducted in 0.125 M THAM (pH 7.7) at 37° C. using the USP II dissolution apparatus. Nefazodone […] in powder form (about 75-80 mg) were added to 900 mL dissolution medium stirred at 50 rpm and samples were withdrawn at time points up to 2 hours. The USP official method recommends paddles to be 1 inch from the bottom. In this experiment, paddles were 3/4 inch from the bottom. The paddle depth was altered to facilitate suspension of the powder during experiments. Samples were analyzed using HPLC assay.

[7] = Drug release from tablets in simulated intestinal fluid pH 7.5 (FIG. 3); type: physicochemical; details: pH 7.5, 37° C.
Protocol: as §1, §2, §3, §4, §5, §6, §7, §8, §9

[8] = Drug release from tablets in 0.5M THAM buffer (FIG. 4); type: physicochemical; details: 37° C.
Protocol: as §1, §2, §3, §4, §5
The details of conditions for the dissolution experiments are as follows:
as §7, §8, §9

[9] = Aqueous solubility of nefazodone as a function of pH; type: physicochemical; details: gastrointestinal tract / pH range
[10] = Stability under pharmaceutical processing and storage; type: physicochemical; details: pharmaceutical processing/handling and storage; listed as mesylate salt

SMILES	Intrinsic Dissolution Rate [1] [mg/min/cm 2]	Final pH [1]	solubility / dissolution rate in water [1]	also measured
CCc1nn(CCCN2CCN(c3cccc(Cl)c3)CC2)c(=O)n1CCOc1ccccc1 [DL-Malate]	0.98	4.3	–	–
CCc1nn(CCCN2CCN(c3cccc(Cl)c3)CC2)c(=O)n1CCOc1ccccc1 [D-Tartrate]	1.13	3.7	–	–
CCc1nn(CCCN2CCN(c3cccc(Cl)c3)CC2)c(=O)n1CCOc1ccccc1 [Acetate]	0.03	5.4	Low solubilities	–
CCc1nn(CCCN2CCN(c3cccc(Cl)c3)CC2)c(=O)n1CCOc1ccccc1 [L-Tartrate]	0.97	3.8	–	–
CCc1nn(CCCN2CCN(c3cccc(Cl)c3)CC2)c(=O)n1CCOc1ccccc1 [D-Malate]	1.15	4.2	–	–
CCc1nn(CCCN2CCN(c3cccc(Cl)c3)CC2)c(=O)n1CCOc1ccccc1 [L-Malate]	1.36	4.2	–	–
CCc1nn(CCCN2CCN(c3cccc(Cl)c3)CC2)c(=O)n1CCOc1ccccc1 [Tosylate]	0.1	4.4	slow	–
CCc1nn(CCCN2CCN(c3cccc(Cl)c3)CC2)c(=O)n1CCOc1ccccc1 [DL-Tartrate]	1.2	3.7	–	–
CCc1nn(CCCN2CCN(c3cccc(Cl)c3)CC2)c(=O)n1CCOc1ccccc1 [Hydrochloride, reference compound]	0.93	4.4	–	drug release from tablets ([2]; listed as hydrochloride salt): good solubility; solubility in the intestinal tract ([3]; intestinal tract, pH ranges from about 5-7): low solubility; bioavailability [4]: low observed bioavailability
CCc1nn(CCCN2CCN(c3cccc(Cl)c3)CC2)c(=O)n1CCOc1ccccc1 [Nefazodone base]	0.002	7.2	Low solubilities	pka ([5]; first of two pka values): about 6.4; pka ([5]; second of two pka values): ~9.5; aqueous solubility ([3]; pH values greater than 6): low aqueous solubility; nefazodone release in the human intestinal tract ([4]; pH approaches neutrality): inhibited
CCc1nn(CCCN2CCN(c3cccc(Cl)c3)CC2)c(=O)n1CCOc1ccccc1 [Succinate]	0.16	5.0	Low solubilities	–
CCc1nn(CCCN2CCN(c3cccc(Cl)c3)CC2)c(=O)n1CCOc1ccccc1 [Maleate]	0.30	4.8	–	–
CCc1nn(CCCN2CCN(c3cccc(Cl)c3)CC2)c(=O)n1CCOc1ccccc1 [Mesylate]	2.7	4.0	–	concentration of drug dissolved compared to the hydrochloride salt [6]: in the higher grouping, the mesylate is not the best of those shown; drug release from tablets [2]: good but not excessive dissolution; drug release from tablets ([2]; listed as mesylate salt): more modest release; drug release from tablets [7]: best of class dissolution; drug release from tablets ([7]; listed as mesylate salt): performs better than the other salts; drug release from tablets [8]: outperforms the others; solubility throughout the gastrointestinal tract [9]: exhibit solubility throughout the gastrointestinal tract; stability [10]: stable solid; also recorded: stable under conditions of pharmaceutical processing and storage
